This is an account of results in paper PMC11955804, “Histidine-rich enantiomeric peptide coacervates enhance antigen sequestration and presentation to T cells” (Chemical Science, 2025).

Type in all cases: physicochemical
A short description of one data set: Turbidity assay of LLPS. The settings on record: 1× PBS pH 7.4, absorbance at 600 nm over 24 h, plate reader. An excerpt:
(§1) Peptide synthesis and purification
The L- and D-enantiomers of (GHGLY)4, (GHGVY)4 and (GHGPY)4 peptides were purchased from GenScript and used without further modification. (GHGAY)4, (GHGFY)4, (GHGIY)4 and (GHGNY)4 were synthesized using standard Fmoc-SPPS chemistry on Rink Amide with Oxyma (Ethyl cyano(hydroxyimino) acetate) and N, N′-diisopropylcarbodiimide (DIC) as coupling agents on a Liberty Blue microwave-assisted synthesizer. Peptides were cleaved using a cocktail of trifluoroacetic acid (TFA), tri-isopropyl silane (TIS), and H2O (95:2.5:2.5) and extracted and washed in cold diethyl ether. The resulting pellet was dissolved in acetonitrile/water mixture (50:50) and frozen prior to lyophilization. Peptides were purified (~90%) using High Performance Liquid Chromatography (HPLC) on a Dionex Ultimate 3000 HPLC equipped with a diode-array detector on an Agilent Poroshell RP-C18 column (4.6 mm×150 mm), operating at a flow rate of 1 mL/min. […]
Peptide solutions (0.25–1.5 mM) were prepared in 1×PBS at pH 7.4. Aliquots (140 µL) were pipetted into a 96-well plate and absorbance at 600 nm was measured over 24 h using a Synergy HT plate reader (Biotek, USA) at RT or 37°C with or without agitation. The pH dependence of LLPS formation was assessed in 0.1 M potassium phosphate buffer (with 150 mM NaCl) at different pH values (5.8, 6.6, 7.4, 8.0) and 1 mM peptide concentration. […]
NaCl) was used to study ionic strength effects. The absorbance was further converted to turbidity using methods previously described 1 and data was plotted as relative turbidity. […]
Droplets were visualized in 1×PBS using NCI Leica DMC4500 microscope in reflection mode with differential interference contrast. […] Coacervate size was measured using 1 mM peptide solutions (1×PBS, pH 7.4) on a ZEN 3600 Zetasizer (Malvern Instruments, UK) using DLS-Zen 0040 specialized cuvettes. […]
Viscosity of the peptide solutions (1 mM or 2 mM) was tested using an ARES 2000ex rotational rheometer (TA Instruments, New Castle, DE). […] Viscosity was measured as a function

A short description of data set [1]: Encapsulation efficiency measurement. The note with it: 1 mM peptide, 1 µM eGFP in PBS; centrifuged 15,000 × g 10 min; fluorescence of supernatant (λex 395 nm, λem 510 nm). The method, then: Encapsulation efficiency measurements […]
powders to a final peptide concentration of 1 mM. Cargo concentrations in the stock solutions […]
nm and λem: 519 nm). For small molecule dyes, similar methods were used. The encapsulation efficiency was determined as reported previously 12.
Cellular uptake and antigen presentation assays […]
to addition of OVA-loaded coacervates. Final OVA concentration was 1 µg/mL for time- […]
37°C and complete RPMI media served as controls. Soluble OVA and PBS treated cells were used as controls for antigen delivery.

Data set [2] is described as follows: Droplet coalescence assay. The settings on record: video still images over 15 min; mixing of fluorophore-loaded droplets. The method, then:
wavelength range of 215–260 nm with a bandwidth of 1.00 nm, 0.5 nm step. Solvent background was subtracted from each spectrum and data converted to mean residue ellipticity (MRE).
Droplet coalescence assays
Experiments were conducted to visualize the dynamic process of droplet fusion by capturing a series of still images over 15 min, with each acquisition every 500 ms. Contrast and brightness were adjusted to ensure optimal visibility of the coacervates, and noise cancellation was applied to reduce background interference. Frame correction aligned the images to account for shifts that occurred during capture. Additional enhancements included sharpening to visualize finer details and color correction to ensure that the visual representation closely matched the actual observation. The images were meticulously stacked to create a continuous video sequence that provided a dynamic view of the peptides' behavior, showing the evolution of coacervates from their initial formation, through stabilization and fusion. Significant fusion events were identified and marked with arrows. Advanced tracking algorithms were employed to follow movement and changes within the coacervates, and event segmentation was used to isolate specific interactions […]
Stem cell-derived cardiomyocytes and confocal microscopy […]

Data set [3] can be described thus: Critical concentration (Ccrit) of coacervate formation. The settings on record: 1× PBS, pH 7.4; enantiomeric variants identical.
Excerpt: as §1
The L- and D-enantiomers of (GHGLY)4, (GHGVY)4 and (GHGPY)4 peptides were purchased from GenScript and used without further modification. (GHGAY)4, (GHGFY)4, (GHGIY)4 and (GHGNY)4 were synthesized using standard Fmoc-SPPS chemistry on Rink Amide with Oxyma (Ethyl cyano(hydroxyimino) acetate) and N, N′-diisopropylcarbodiimide (DIC) as coupling agents on a Liberty Blue microwave-assisted synthesizer. Peptides were cleaved using a cocktail of trifluoroacetic acid (TFA), tri-isopropyl silane (TIS), and H2O (95:2.5:2.5) and extracted and washed in cold diethyl ether. The resulting pellet was dissolved in acetonitrile/water mixture (50:50) and frozen prior to lyophilization. Peptides were purified (~90%) using High Performance Liquid Chromatography (HPLC) on a Dionex Ultimate 3000 HPLC equipped with a diode-array detector on an Agilent Poroshell RP-C18 column (4.6 mm×150 mm), operating at a flow rate of 1 mL/min. Peaks corresponding to 220 nm were collected for MALDI -TOF mass analysis (Shimadzu MALDI-8030) using α-cyno-4-hydroxycinnamic acid matrix (Bruker Daltonics, MA).
Peptide solutions (0.25–1.5 mM) were prepared in 1×PBS at pH 7.4. Aliquots (140 µL) were pipetted into a 96-well plate and absorbance at 600 nm was measured over 24 h using a Synergy HT plate reader (Biotek, USA) at RT or 37°C with or without agitation. The pH dependence of LLPS formation was assessed in 0.1 M potassium phosphate buffer (with 150 mM NaCl) at different pH values (5.8, 6.6, 7.4, 8.0) and 1 mM peptide concentration. Similarly, 0.1 M potassium phosphate buffer (pH 7.4) with varying salt concent rations (0, 150, 250, 500, 1000 mM […]
Figure S10. Determination of Ccrit for (a) (GHGLY)4, (b) (GHGVY)4, (c) (GHGPY)4 and (d-f) their corresponding enantiomers (1 mM, 1× PBS, pH 7.4).
Table S1. Measured Ccrit values for (GHGXY)4 peptides used in this study.
(1 picture or pasted object on this page, not shown here)

With (GHGVY)4 [GV 20], the “turbidity over time (A600)” value in “Turbidity assay of LLPS” is “steadily increased over 24 h”. This substance also came in with an eGFP loading efficiency in data set [1] of roughly 75%. Moreover, in data set [2], the “droplet fusion (coalescence)” value was “did not exhibit fusion behavior”. Moreover, the “critical concentration (Ccrit) of coacervate formation” value in data set [3] is 0.75 mM.
(GHGLY)4 [GL 20]: the “turbidity over time (A600)” value in “Turbidity assay of LLPS” is listed as “formed a turbid solution instantaneously”. This substance also yielded an eGFP loading efficiency in data set [1] of roughly 90%. In data set [2], the “droplet fusion (coalescence)” value is “multiple rapid fusion events”. For the same substance, the “critical concentration (Ccrit) of coacervate formation” value in data set [3] is 0.5 mM.
